By IC50 is commonly meant the midpoint of a concentration-inhibition curve. Read a low IC50 as higher potency.

In one assay the test system is TNF-α. In words: Cytokine assay, TNF-α release from PBMC. The assay is classed as cell-based. The note with it: 1 μg/mL LPS, supernatant at 24 hours. The method, boiled down: (§1)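 Inhibition of cytokine release was assessed in thawed human PBMC cultured in RPMI 1640 plus 10% FBS, with compound tested at four concentrations from 0.01 to 10 μM.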
A further assay has as its system IFN-γ. In words: Cytokine assay, IFN-γ release from PBMC. The note with it: human PBMC, 20 ug/mL PHA, supernatant at 24 hours. The assay is classed as cell-based. The method, boiled down:
as §1

A further assay relates to IL-10. Put plainly: Cytokine assay, IL-10 release from PBMC. The settings on record: human PBMC, 20 ug/mL PHA, supernatant at 48 hours. Type of assay: cell-based. The method, boiled down: as §1
A further assay relates to IL-2. Put plainly: Cytokine assay, IL-2 release from PBMC. Type of assay: cell-based. The settings on record: human PBMC, 20 ug/mL PHA, supernatant at 24 hours. The method, boiled down:
as §1

For assay [1], the system named is T1, PDE4 partially purified from human U-937 myeloid leukemia cells.
T1 construct: PDE4 partially purified from human U-937 myeloid leukemia cells was used
In words: PDE4 Assay (enzyme from U-937 cells, [3H]cAMP). Type of assay: biochemical. The note with it: PDE4 from U-937 cells, Tris buffer pH 7.5, 20 minutes at 25° C.

The next assay relates to IL-5. Put plainly: Cytokine assay, IL-5 release from PBMC. The assay is classed as cell-based. The note with it: human PBMC, 20 ug/mL PHA, supernatant at 48 hours. The method, boiled down: as §1

Some results are limits rather than exact numbers.

Take `CC(C)(C)OC(=O)COc1cc(Oc2ccc3c(c2)COB3O)ccc1C#N` [D40, [2-Cyano-5-(1-hydroxy-1,3-dihydro-benzo[c][1,2]oxaborol-5-yloxy)-phenoxy]-acetic acid tert-butyl ester]: the IC50 was less than 1000 nM in the assay with TNF-α (Homo sapiens, PBMC, 24 h); less than 1000 nM in the assay on IFN-γ; less than 1 µM with IL-10; less than 1000 nM with IL-2; less than 1000 nM in assay [1]; less than 1 µM in the assay on IL-5.
As to `N#Cc1ccc(Oc2ccc3c(c2)COB3O)cc1OCC(=O)N1CCOCC1` [D41, 4-(1-Hydroxy-1,3-dihydro-benzo[c][1,2]oxaborol-5-yloxy)-2-(2-morpholin-4-yl-2-oxo-ethoxy)-benzonitrile], the IC50 was 1000 to 4000 nM with TNF-α (Homo sapiens, PBMC, 24 h); less than 1000 nM in the assay on IFN-γ; 1 to 4 µM with IL-10; less than 1000 nM in the assay on IL-2; less than 1000 nM in assay [1]; 1 to 4 µM with IL-5.
Take `COc1ccc(C#N)c(Oc2ccc3c(c2)COB3O)n1` [D47, 2-(1-Hydroxy-1,3-dihydro-benzo[c][1,2]oxaborol-5-yloxy)-6-methoxy-nicotinonitrile]: the concentration for half-maximal inhibition (IC50) is less than 1000 nM in the assay with TNF-α (Homo sapiens, PBMC, 24 h); less than 1000 nM in the assay with IFN-γ; 1 to 4 µM in the assay with IL-10; less than 1000 nM in the assay with IL-2; less than 1000 nM in assay [1]; less than 1 µM with IL-5.
`CCOC(=O)c1ccc(Oc2ccc3c(c2)COB3O)c(F)c1` [D51, 5-(2-Fluoro-4-ethoxycarbonylphenoxy)-1-hydroxy-2,1-benzoxaborole]: the IC50 in the assay with TNF-α (Homo sapiens, PBMC, 24 h) was 1000 to 4000 nM; in the assay with IFN-γ, 1000 to 4000 nM; in the assay on IL-10, 1 to 4 µM; with IL-2, 1000 to 4000 nM; in assay [1], less than 1000 nM; with IL-5 it was 4 to 10 µM.
For the compound `COC(=O)c1cc(F)c(Oc2ccc3c(c2)COB3O)c(F)c1` [D52, 5-(2,6-Difluoro-4-methoxycarbonylphenoxy)-1-hydroxy-2,1-benzoxaborole], the IC50 is greater than 10000 nM in the assay with TNF-α (Homo sapiens, PBMC, 24 h); 4000 to 10000 nM in the assay with IFN-γ; greater than 10 µM in the assay on IL-10; 4000 to 10000 nM in the assay on IL-2; 1000 to 4000 nM in assay [1]; greater than 10 µM in the assay on IL-5.
On to `CCOC(=O)c1cc(F)c(Oc2ccc3c(c2)COB3O)cc1Cl` [D53, 5-(5-Chloro-2-fluoro-4-ethoxycarbonylphenoxy)-1-hydroxy-2,1-benzoxaborole], for which the IC50 in the assay with TNF-α (Homo sapiens, PBMC, 24 h) was less than 1000 nM; in the assay on IFN-γ it was less than 1000 nM; with IL-10, 1 to 4 µM; in the assay on IL-2, less than 1000 nM; in assay [1] it was less than 1000 nM; in the assay on IL-5, 1 to 4 µM.
For the compound `CCOC(=O)c1ccc(Oc2ccc3c(c2)COB3O)c(C(F)(F)F)c1` [D54, 5-(4-Eethoxycarbonyl-2-trifluoromethylphenoxy)-1-hydroxy-2,1-benzoxaborole], the IC50 with TNF-α (Homo sapiens, PBMC, 24 h) is less than 1000 nM; in the assay with IFN-γ, less than 1000 nM; in the assay with IL-10 it was less than 1 µM; in the assay with IL-2, less than 1000 nM; in assay [1], less than 1000 nM; in the assay on IL-5 it was 1 to 4 µM.
Regarding `CC(C)OC(=O)c1ccc(Oc2ccc3c(c2)COB3O)c(F)c1` [D55, 5-(2-Fluoro-4-isopropyloxycarbonylphenoxy)-1-hydroxy-2,1-benzoxaborole], the IC50 was 4000 to 10000 nM in the assay with TNF-α (Homo sapiens, PBMC, 24 h); less than 1000 nM in the assay with IFN-γ; 4 to 10 µM in the assay with IL-10; less than 1000 nM in the assay with IL-2; less than 1000 nM in assay [1]; 1 to 4 µM in the assay on IL-5.
Take `CCOC(=O)c1cc(F)c(Oc2ccc3c(c2)COB3O)c(F)c1` [D56, 5-(2,6-Difluoro-4-ethoxycarbonylphenoxy)-1-hydroxy-2,1-benzoxaborole]: the IC50 in the assay on TNF-α (Homo sapiens, PBMC, 24 h) was greater than 10000 nM; in the assay on IFN-γ, greater than 10000 nM; in the assay with IL-10, greater than 10 µM; in the assay on IL-2, 4000 to 10000 nM; in assay [1], 1000 to 4000 nM; in the assay on IL-5 it was greater than 10 µM.
Regarding `CCOC(=O)c1ccc(Oc2ccc3c(c2)COB3O)cc1Cl` [D57, 5-(3-Chloro-4-ethoxycarbonylphenoxy)-1-hydroxy-2,1-benzoxaborole], the concentration for half-maximal inhibition (IC50) with TNF-α (Homo sapiens, PBMC, 24 h) is 4000 to 10000 nM; with IFN-γ, 1000 to 4000 nM; in the assay with IL-10, greater than 10 µM; in the assay with IL-2, less than 1000 nM; in assay [1], less than 1000 nM; in the assay on IL-5, less than 1 µM.
For the compound `CCOC(=O)c1cc(Cl)c(Oc2ccc3c(c2)COB3O)cc1F` [D58, 5-(2-Chloro-5-fluoro-4-ethoxycarbonylphenoxy)-1-hydroxy-2,1-benzoxaborole], the IC50 is 1000 to 4000 nM in the assay on TNF-α (Homo sapiens, PBMC, 24 h); less than 1000 nM with IFN-γ; greater than 10 µM with IL-10; less than 1000 nM in the assay with IL-2; less than 1000 nM in assay [1]; less than 1 µM in the assay with IL-5.
Consider `CCN(CC)C(=O)c1ccc(Oc2ccc3c(c2)COB3O)nc1` [D62, N,N-diethyl-6-(1-hydroxy-1,3-dihydrobenzo[c][1,2]-5-yloxy) nicotinamide], for which the IC50 was less than 1000 nM with TNF-α (Homo sapiens, PBMC, 24 h); less than 1000 nM in the assay with IFN-γ; 1 to 4 µM with IL-10; less than 1000 nM in the assay with IL-2; 1000 to 4000 nM in assay [1]; 1 to 4 µM in the assay on IL-5.
With `CCCOC(=O)c1ccc(Oc2ccc3c(c2)COB3O)nc1` [D66, n-Propyl 6-(1-hydroxy-1,3-dihydrobenzo[c][1,2]oxaborol-5-yloxy)nicotinate], the IC50 is less than 1000 nM in the assay on TNF-α (Homo sapiens, PBMC, 24 h); less than 1000 nM in the assay on IFN-γ; less than 1 µM in the assay on IL-10; less than 1000 nM with IL-2; less than 1000 nM in assay [1]; less than 1 µM in the assay with IL-5.
For the compound `COC(=O)c1ccc(Oc2ccc3c(c2)COB3O)cc1` [D71, 4-(1-Hydroxy-1,3-dihydro-benzo[c][1,2]oxaborol-5-yloxy)-benzoic acid methyl ester], the concentration for half-maximal inhibition (IC50) in the assay with TNF-α (Homo sapiens, PBMC, 24 h) was 1000 to 4000 nM; with IFN-γ, 1000 to 4000 nM; in the assay on IL-10 it was greater than 10 µM; in the assay on IL-2, 1000 to 4000 nM; in assay [1], less than 1000 nM; with IL-5, 4 to 10 µM.
For `CCOC(=O)c1ccc(Oc2ccc3c(c2)COB3O)cc1` [D72, 4-(1-Hydroxy-1,3-dihydro-benzo[c][1,2]oxaborol-5-yloxy)-benzoic acid ethyl ester], the IC50 in the assay on TNF-α (Homo sapiens, PBMC, 24 h) was 1000 to 4000 nM; in the assay with IFN-γ, 1000 to 4000 nM; in the assay on IL-10 it was greater than 10 µM; in the assay on IL-2, 1000 to 4000 nM; in assay [1], less than 1000 nM; with IL-5 it was 4 to 10 µM.
With `CC(C)OC(=O)c1ccc(Oc2ccc3c(c2)COB3O)cc1` [D74, 4-(1-Hydroxy-1,3-dihydro-benzo[c][1,2]oxaborol-5-yloxy)-benzoic acid isopropyl ester], the IC50 in the assay with TNF-α (Homo sapiens, PBMC, 24 h) is 1000 to 4000 nM; with IFN-γ, less than 1000 nM; in the assay on IL-10 it was 1 to 4 µM; in the assay with IL-2, less than 1000 nM; in assay [1], less than 1000 nM; with IL-5, 1 to 4 µM.
Consider `O=C(NCc1ccccc1)c1ccc(Oc2ccc3c(c2)COB3O)cc1` [D76, N-Benzyl-4-(1-hydroxy-1,3-dihydro-benzo[c][1,2]oxaborol-5-yloxy)-benzamide], for which the IC50 in the assay on TNF-α (Homo sapiens, PBMC, 24 h) was 1000 to 4000 nM; with IFN-γ it was 1000 to 4000 nM; in the assay with IL-10, 1 to 4 µM; with IL-2 it was less than 1000 nM; in assay [1], less than 1000 nM; in the assay with IL-5 it was 4 to 10 µM.
Regarding `O=C(NCc1ccccn1)c1ccc(Oc2ccc3c(c2)COB3O)cc1` [D78, 4-(1-Hydroxy-1,3-dihydro-benzo[c][1,2]oxaborol-5-yloxy)-N-pyridin-2-ylmethyl-benzamide], the IC50 in the assay with TNF-α (Homo sapiens, PBMC, 24 h) was 1000 to 4000 nM; in the assay on IFN-γ, 1000 to 4000 nM; in the assay on IL-10 it was 1 to 4 µM; with IL-2, 1000 to 4000 nM; in assay [1], less than 1000 nM; in the assay on IL-5, 1 to 4 µM.
In the case of `N#Cc1ccc(Oc2ccc3c(c2)COB3O)nc1` [D82, 6-(1-hydroxy-1,3-dihydrobenzo[c][1,2]oxaborol-5-yloxy)nicotinonitrile], the 50% inhibitory concentration (IC50) is less than 1000 nM in the assay on TNF-α (human PBMC); less than 1000 nM in the assay with IFN-γ; less than 1 µM in the assay on IL-10; less than 1000 nM in the assay on IL-2; less than 1000 nM in assay [1]; 1 to 4 µM with IL-5.
With `N#Cc1ccc(Oc2ccc3c(c2)COB3O)c(F)c1` [D84, 3-fluoro-4-(1-hydroxy-1,3-dihydrobenzo[c][1,2]oxaborol-5-yloxy)benzonitrile], the IC50 was 1000 to 4000 nM in the assay with TNF-α (Homo sapiens, PBMC, 24 h); 4000 to 10000 nM with IFN-γ; 1 to 4 µM with IL-10; 1000 to 4000 nM in the assay with IL-2; less than 1000 nM in assay [1]; 4 to 10 µM in the assay on IL-5.
For the compound `Cc1cc(C#N)ccc1Oc1ccc2c(c1)COB2O` [D85, 3-methyl-4-(1-hydroxy-1,3-dihydrobenzo[c][1,2]oxaborol-5-yloxy)benzonitrile], the IC50 in the assay with TNF-α (Homo sapiens, PBMC, 24 h) was less than 1000 nM; in the assay with IFN-γ, less than 1000 nM; in the assay on IL-10, 1 to 4 µM; in the assay on IL-2, less than 1000 nM; in assay [1] it was less than 1000 nM; in the assay with IL-5 it was less than 1 µM.
`COc1ccc(Oc2ccc3c(c2)COB3O)cc1OC` [D94, 5-(3,4-dimethoxyphenoxy)benzo[c][1,2]oxaborol-1 (3H)-ol]: the IC50 in the assay on TNF-α (Homo sapiens, PBMC, 24 h) was 1000 to 4000 nM; in the assay on IFN-γ, 1000 to 4000 nM; in the assay with IL-10, greater than 10 µM; in the assay with IL-2 it was 1000 to 4000 nM; in assay [1], less than 1000 nM; in the assay with IL-5, 1 to 4 µM.
As for `CS(=O)(=O)c1ccc(Oc2ccc3c(c2)COB3O)cc1` [D103, 5-(4-(methylsulfonyl)phenoxy)benzo[c][1,2]oxaborol-1 (3H)-ol], the 50% inhibitory concentration (IC50) in the assay with TNF-α (Homo sapiens, PBMC, 24 h) is 1000 to 4000 nM; with IFN-γ it was less than 1000 nM; in the assay with IL-10 it was 1 to 4 µM; in the assay with IL-2 it was less than 1000 nM; in assay [1], 1000 to 4000 nM; in the assay with IL-5, less than 1 µM.

The values are drawn from patent publication US9012431B2, “Boron-containing small molecules as anti-inflammatory agents” (Anacor Pharmaceuticals, Inc., priority 2008, dated 2015).
